Measurements taken from patent US12428412B2 (DANA-FARBER CANCER INSTITUTE, INC., priority 2018, dated 2025).
Entries after “also recorded” stand apart in the source; their conditions may differ.

Assays:
Kelly cells = assay: ATPlite cell growth inhibition assay, Kelly cell lines treated 72 hours; assay type: cell-based; details: for Kelly NB cell growth inhibition: 72 hours, ATPlite, normalized to DMSO; for IC50: ND: not detected
Protocol: Compounds CPD 1 to CPD 22 were tested via ATPlite™ assay (ATPlite™ 1000 assay kit, PerkinElmer®, USA) using standard protocol. […] The signal is normalized to DMSO treated cells.

cereblon (CRBN) = cereblon (CRBN) (Homo sapiens, UniProt Q96SW2); assay: AlphaScreen assay, cereblon (CRBN); assay type: binding
Sequence of cereblon (CRBN) (Q96SW2 whole entry): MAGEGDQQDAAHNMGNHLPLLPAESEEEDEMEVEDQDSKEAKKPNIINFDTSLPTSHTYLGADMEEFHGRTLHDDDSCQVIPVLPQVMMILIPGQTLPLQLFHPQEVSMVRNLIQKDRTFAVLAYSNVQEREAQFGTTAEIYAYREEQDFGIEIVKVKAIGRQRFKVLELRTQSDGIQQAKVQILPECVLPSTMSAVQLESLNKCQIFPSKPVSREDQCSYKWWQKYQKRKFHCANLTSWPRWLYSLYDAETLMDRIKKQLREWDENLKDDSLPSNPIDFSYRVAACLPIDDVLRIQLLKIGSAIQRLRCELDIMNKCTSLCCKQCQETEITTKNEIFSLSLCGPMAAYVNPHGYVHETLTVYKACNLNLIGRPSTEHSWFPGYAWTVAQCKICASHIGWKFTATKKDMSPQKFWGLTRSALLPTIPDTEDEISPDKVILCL
Text: An AlphaLISA® assay for EP300 catalytic function (FIG. 3B) and an AlphaScreen™ assay for EP300 bromodomain and cereblon (CRBN) using biotinylated tagged small molecules as a probe for EP300 bromodomain and CRBN, respectively, were developed (FIG. 3C).
AlphaScreen™ assay was used to determine the binding of inventive degrader compound toward both CRBN and HAT domain.

HAT (EP300) domain = target: T1, HAT (EP300) domain (Homo sapiens, UniProt Q09472); assay: AlphaScreen assay, HAT (EP300) domain; assay type: binding
T1 sequence (Q09472 1287-1663 limits assumed): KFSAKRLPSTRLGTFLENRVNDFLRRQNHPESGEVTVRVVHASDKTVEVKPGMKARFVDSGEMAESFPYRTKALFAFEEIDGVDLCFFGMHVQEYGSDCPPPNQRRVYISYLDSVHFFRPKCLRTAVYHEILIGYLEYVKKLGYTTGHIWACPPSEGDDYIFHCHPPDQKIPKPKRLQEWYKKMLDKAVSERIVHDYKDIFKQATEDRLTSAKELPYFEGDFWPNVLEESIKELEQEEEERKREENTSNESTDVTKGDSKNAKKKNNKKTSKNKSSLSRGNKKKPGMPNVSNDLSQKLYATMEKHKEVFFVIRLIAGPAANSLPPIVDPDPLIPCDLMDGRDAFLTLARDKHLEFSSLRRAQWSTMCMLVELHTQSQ
Protocol: The AlphaScreen™ assay was performed in 384-well plate format using white AlphaPlate (PerkinElmer®, USA), and transfer of pre-diluted compound (100 nL) was performed using a Janus Workstation (PerkinElmer®, USA). All subsequent steps were carried out in assay buffer (50 mM 4-(2-hydroxyethyl)-1-piperazineethanesulfonic acid (HEPES), pH 7.5, 0.1% (wt/vol) bovine serum albumin (BSA) and 0.01% (vol/vol) Tween-20). In brief, 10 μL of assay buffer containing enzyme (2 nM Final) was pre-incubated for 15 min with dilutions of compound. The enzyme reaction was initiated by the addition of substrate (5 μL) consisting of acetyl Co-A 2-OG (5 μM Final).
FAS final concentration was 10 μM. Histone tail-GGK Biotin final concentration was 100 nM Final. The enzyme reaction was allowed to proceed for 30 minutes and was stopped by the addition of 5 μL of assay buffer containing ethylenediaminetetraacetic acid (EDTA) (40 mM) and NaCl (1200 mM). The final concentration of dimethyl sulfoxide (DMSO) was 1%. Streptavidin donor beads (0.08 mg/mL) and protein-A-conjugated acceptor beads (0.08 mg/mL) were preincubated for 1 h with antibody to methyl mark (300 ng/mL Final), and the presence of histone H3 product acetylation mark was detected using the preincubated AlphaScreen™ beads (5 μL). Detection was allowed to proceed for 2 hours at rt, and the assay plates were read on the Envision™ 2104 plate reader. Data were normalized to the (no-enzyme) control, and the IC50 values were determined via nonlinear regression curve fit using GraphPad Prism (FIG. 4E-FIG. 4H).
AlphaScreen™ assay was used to determine the binding of inventive degrader compound toward both CRBN and HAT domain. The experimental protocol is the same as in Example 26.

[1] = in mice; cited from earlier work
Kelly NB cells = assay: EP300/CBP inhibitors in Kelly NB cells (colony formation, CellTiter-Glo growth assays); assay type: cell-based
Protocol: The effects of several EP300/CBP inhibitors, C646, CBP30 and A485 were tested in Kelly NB cells. (FIG. 2B).

| Compound | Kelly NB cell growth inhibition (Kelly cells) | IC50 (Kelly cells) [µM] | binding to cereblon (CRBN) (cereblon (CRBN)) | other results |
| --- | --- | --- | --- | --- |
| CC(N(Cc1ccc(F)cc1)C(=O)CN1C(=O)O[C@@]2(CCc3cc(NC(=O)CCCNC(=O)CCCCCNc4ccc5c(c4)C(=O)N(C4CCC(=O)NC4=O)C5=O)ccc32)C1=O)C(F)(F)F (stereo in doubt) [CPD 10, 6-((2-(2,6-dioxopiperidin-3-yl)-1,3-dioxoisoindolin-5-yl)amino)-N-(4-(((R)-3′-(2-((4-fluorobenzyl)((R)-1,1,1-trifluoropropan-2-yl)amino)-2-oxoethyl)-2′,4′-dioxo-2,3-dihydrospiro[indene-1,5′-oxazolidin]-5-yl)amino)-4-oxobutyl)hexanamide] | Cell growth inhibition was observed | 1.15 | – | – |
| CC(=O)Nc1ccc2c(c1)CC[C@@]21OC(=O)N(CC(=O)N(Cc2ccc(F)cc2)[C@H](C)CNC(=O)CCCCCCCCCCCNc2ccc3c(c2)C(=O)N(C2CCC(=O)NC2=O)C3=O)C1=O (stereo partly drawn) [CPD 15, N—((R)-2-(2-((R)-5-acetamido-2′,4′-dioxo-2,3-dihydrospiro[indene-1,5′-oxazolidin]-3′-yl)-N-(4-fluorobenzyl)acetamido)propyl)-12-((2-(2,6-dioxopiperidin-3-yl)-1,3-dioxoisoindolin-5-yl)amino)dodecanamide] | Cell growth inhibition was observed | 1.76 | – | – |
| C[C@H](N(Cc1ccc(F)cc1)C(=O)CN1C(=O)O[C@@]2(CCc3cc(NC(=O)CCCNC(=O)CCCCCCCCCCCNc4ccc5c(c4)C(=O)N(C4CCC(=O)NC4=O)C5=O)ccc32)C1=O)C(F)(F)F (stereo partly shown) | outperformed positive control A485; also recorded: Cell growth inhibition was observed | 0.31 | – | – |
| Nc1cccc2c1C(=O)N(C1CCC(=O)NC1=O)C2=O (stereo not shown) [pomalidomide, reference compound] | – | – | bind | – |
| O=C1CCC(N2C(=O)c3ccccc3C2=O)C(=O)N1 (stereo not shown) [thalidomide, reference compound] | – | – | bind | – |
| C[C@H](N(Cc1ccc(F)cc1)C(=O)CN1C(=O)O[C@@]2(CCc3cc(NC(=O)CCOCCOCCOCCOCCOCCOCCNc4cccc5c4C(=O)N(C4CCC(=O)NC4=O)C5=O)ccc32)C1=O)C(F)(F)F (stereo partly drawn) [CPD 2, 1-((2-(2,6-dioxopiperidin-3-yl)-1,3-dioxoisoindolin-4-yl)amino)-N—((R)-3′-(2-((4-fluorobenzyl)((S)-1,1,1-trifluoropropan-2-yl)amino)-2-oxoethyl)-2′,4′-dioxo-2,3-dihydrospiro[indene-1,5′-oxazolidin]-5-yl)-3,6,9,12,15,18-hexaoxahenicosane-21-amide] | did not inhibit cellular growth | 3.42 | bind | binding to HAT (EP300) domain (HAT (EP300) domain): bind |
| CC(=O)Nc1ccc2c(c1)CC[C@@]21OC(=O)N(CC(=O)N(Cc2ccc(F)cc2)[C@@H](C)CNC(=O)CCCCCCCCCCCNc2ccc3c(c2)C(=O)N(C2CCC(=O)NC2=O)C3=O)C1=O (stereo partly drawn) [CPD 16, N—((S)-2-(2-((R)-5-acetamido-2′,4′-dioxo-2,3-dihydrospiro[indene-1,5′-oxazolidin]-3′-yl)-N-(4-fluorobenzyl)acetamido)propyl)-12-((2-(2,6-dioxopiperidin-3-yl)-1,3-dioxoisoindolin-5-yl)amino)dodecanamide] | outperformed positive control A485; also recorded: Cell growth inhibition was observed | 0.27 | – | – |
| C[C@H](N(Cc1ccc(F)cc1)C(=O)CN1C(=O)O[C@@]2(CCc3cc(NC(=O)CCc4ccc(NC(=O)CCCCCCCCCCCNc5ccc6c(c5)C(=O)N(C5CCC(=O)NC5=O)C6=O)cc4)ccc32)C1=O)C(F)(F)F (stereo partly drawn) [CPD 13, 12-((2-(2,6-dioxopiperidin-3-yl)-1,3-dioxoisoindolin-5-yl)amino)-N-(4-(3-(((R)-3′-(2-((4-fluorobenzyl)((S)-1,1,1-trifluoropropan-2-yl)amino)-2-oxoethyl)-2′,4′-dioxo-2,3-dihydrospiro[indene-1,5′-oxazolidin]-5-yl)amino)-3-oxopropyl)phenyl)dodecanamide] | Cell growth inhibition was observed | 1.39 | – | – |
| CNC(=O)Nc1ccc2c(c1)CC[C@@]21OC(=O)N(CC(=O)N(Cc2ccc(F)cc2)[C@@H](C)C(F)(F)F)C1=O [A485, N-[(4-fluorophenyl)methyl]-2-{(1R)-5-[(methylcarbamoyl)amino]-2′,4′-dioxo-2,3-dihydro-3′H-spiro[indene-1,5′-[1,3]oxazolidin]-3′-yl}-N-[(2S)-1,1,1-trifluoropropan-2-yl]acetamide] | – | – | no binding was observed | binding to HAT (EP300) domain (HAT (EP300) domain): bind; half life [1]: 42 min; apoptosis (Kelly NB cells; Kelly NB cells, increasing doses): induction of apoptosis; growth inhibition (Kelly NB cells; Kelly NB cells, increasing doses, CellTiter-Glo): growth inhibition; growth changes in cellular models of NB compared with C646 and CBP30 (Kelly NB cells; at submicromolar levels): superior to other known EP300/CBP inhibitors |
